{"source": "patent US9403813B2", "about": "“Azetidine amide derivatives as orexin receptor antagonists” (ACTELION PHARMACEUTICALS LTD, priority 2013, dated 2016)", "key": {"rat [1]": {"system": "rat", "details": "cited from earlier work"}, "rat [2]": {"system": "rat", "details": "cited from earlier work", "remark": "listed apart in the source"}, "rats [3]": {"system": "rats", "details": "fasted hungry rats exposed to food odors; cited from earlier work"}, "mouse": {"system": "mouse", "details": "administered chronically; cited from earlier work"}, "[4]": {"system": "amyloid precursor protein transgenic mice", "details": "after acute sleep restriction, APP transgenic mice; cited from earlier work"}, "rat [5]": {"system": "rat", "details": "cited from earlier work", "remark": "listed apart in the source"}, "rats [6]": {"system": "rats", "details": "rats treated with the compound; cited from earlier work"}, "humans": {"system": "humans", "details": "primary insomnia; cited from earlier work"}, "rats [7]": {"system": "rats", "details": "cited from earlier work"}, "human orexin-2 receptor": {"target": "human orexin-2 receptor (Homo sapiens (Human), UniProt O43614)", "sequence (O43614 whole entry)": "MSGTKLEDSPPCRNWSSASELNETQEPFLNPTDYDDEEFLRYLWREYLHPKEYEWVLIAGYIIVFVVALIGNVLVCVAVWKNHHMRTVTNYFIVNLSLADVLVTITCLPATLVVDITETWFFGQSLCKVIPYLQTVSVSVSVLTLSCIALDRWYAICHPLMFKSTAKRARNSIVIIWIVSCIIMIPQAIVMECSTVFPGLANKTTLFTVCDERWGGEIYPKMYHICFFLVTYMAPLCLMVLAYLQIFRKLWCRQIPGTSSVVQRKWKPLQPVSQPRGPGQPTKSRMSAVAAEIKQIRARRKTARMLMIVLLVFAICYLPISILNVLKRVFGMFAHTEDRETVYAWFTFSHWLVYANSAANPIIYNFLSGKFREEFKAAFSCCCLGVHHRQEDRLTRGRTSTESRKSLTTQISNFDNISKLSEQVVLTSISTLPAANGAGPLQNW", "test": "Intracellular calcium measurements (FLIPR), antagonism of orexin-A response", "format": "cell-based", "details": "CHO cells expressing human orexin-2 receptor, 3 nM orexin-A, geometric mean if determined several times, read-out: IC50 OX2", "in_short": "(§1)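 CHO cells expressing human OX1 or OX2 receptor, loaded with fluo-4 AM plus probenecid, preincubated with antagonist 120 min before 3 nM orexin-A challenge. FLIPR calcium peak heights compared with agonist-plus-vehicle response. IC50 possibly normalized to on-plate reference; geometric mean of repeat determinations.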"}, "human orexin-1 receptor": {"target": "human orexin-1 receptor (Homo sapiens (Human), UniProt O43613)", "sequence (O43613 whole entry)": "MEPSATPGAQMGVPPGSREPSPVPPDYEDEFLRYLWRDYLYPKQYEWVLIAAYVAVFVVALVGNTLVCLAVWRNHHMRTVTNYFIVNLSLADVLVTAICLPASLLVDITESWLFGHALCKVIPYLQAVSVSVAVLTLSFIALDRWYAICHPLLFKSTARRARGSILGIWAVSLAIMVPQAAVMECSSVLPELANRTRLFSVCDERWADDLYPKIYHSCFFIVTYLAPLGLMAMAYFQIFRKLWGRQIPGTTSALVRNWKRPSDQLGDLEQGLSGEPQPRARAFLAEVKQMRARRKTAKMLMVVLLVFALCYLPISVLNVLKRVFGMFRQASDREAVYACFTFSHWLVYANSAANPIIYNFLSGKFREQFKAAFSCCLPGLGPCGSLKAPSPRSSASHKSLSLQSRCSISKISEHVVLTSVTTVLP", "test": "Intracellular calcium measurements (FLIPR), antagonism of orexin-A response", "format": "cell-based", "details": "CHO cells expressing human orexin-1 receptor, 3 nM orexin-A, geometric mean if determined several times, read-out: IC50 OX1", "in_short": "as §1"}, "rodents [8]": {"system": "rodents", "details": "cited from earlier work"}, "rodents [9]": {"system": "rodents", "details": "cited from earlier work", "remark": "listed apart in the source"}}, "data": [{"smiles": "CNC(=O)[C@@H](c1ccccc1)N1CCc2cc(OC)c(OC)cc2[C@@H]1CCc1ccc(C(F)(F)F)cc1", "note": "[(2R)-2-{(1S)-6,7-dimethoxy-1-[2-(4-trifluoromethyl-phenyl)-ethyl]-3,4-dihydro-1H-isoquinolin-2-yl}-N-methyl-2-phenyl-acetamide]", "values": [{"measurement": "alertness (active wake and locomotion)", "setting": "rat [1]", "value": "decrease alertness"}, {"measurement": "time spent in REM and NREM sleep", "setting": "rat [1]", "value": "dose-dependently increase the time spent in both REM and NREM sleep"}, {"measurement": "activity in fear-potentiated startle paradigm", "setting": "rat [2]", "value": "active"}, {"measurement": "natural activation induced by orexin A", "setting": "rats [3]", "value": "attenuate the natural activation induced by orexin A"}, {"measurement": "antidepressant-like activity", "setting": "mouse", "value": "induce antidepressant-like activity"}, {"measurement": "brain levels of amyloid-beta and plaque deposition", "setting": "[4]", "value": "decreased brain levels of amyloid-beta (Aβ) as well as Aβ plaque deposition"}, {"measurement": "activity in nicotine self-administration", "setting": "rat [5]", "value": "displayed pharmacological activity"}, {"measurement": "learning and memory", "setting": "rats [6]", "value": "intact declarative and non-declarative learning and memory"}, {"measurement": "clinical efficacy", "setting": "humans", "value": "showed clinical efficacy"}, {"measurement": "cardiovascular responses to conditioned fear and novelty exposure", "setting": "rats [7]", "value": "attenuated cardiovascular responses"}]}, {"smiles": "Cc1ccc(-c2ccccc2)c(C(=O)N2CC[C@H]2c2nnc(-c3ccccc3OC(F)(F)F)[nH]2)c1", "note": "[Example 134, (4-Methyl-biphenyl-2-yl)-{(S)-2-[5-(2-trifluoromethoxy-phenyl)-4H-[1,2,4]triazol-3-yl]-azetidin-1-yl}-methanone]", "values": [{"measurement": "IC50", "setting": "human orexin-2 receptor", "value": 39, "unit": "nM"}, {"measurement": "IC50", "setting": "human orexin-1 receptor", "value": 563, "unit": "nM"}]}, {"smiles": "Cc1ccc(-c2ncccn2)c(C(=O)N2CC[C@H]2c2nnc(-c3ccccc3OC(F)(F)F)[nH]2)c1", "note": "[Example 135, (5-Methyl-2-pyrimidin-2-yl-phenyl)-{(S)-2-[5-(2-trifluoromethoxy-phenyl)-4H-[1,2,4]triazol-3-yl]-azetidin-1-yl}-methanone]", "values": [{"measurement": "IC50", "setting": "human orexin-2 receptor", "value": 348, "unit": "nM"}, {"measurement": "IC50", "setting": "human orexin-1 receptor", "value": 2000, "unit": "nM"}]}, {"smiles": "Cn1c(SCC(=O)N2CCC[C@H]2C(=O)Nc2ccccc2-c2ccccc2)nc2ccccc21", "note": "[N-Biphenyl-2-yl-1-{[(1-methyl-1H-benzimidazol-2-yl)sulfanyl]acetyl}-L-prolinamide]", "values": [{"measurement": "behavioral and molecular changes induced by repeated amphetamine", "setting": "rodents [8]", "value": "reduced behavioral (locomotor sensitization) and molecular (transcriptional responses) changes"}, {"measurement": "nicotine-reinstatement for a conditioned reinforcer", "setting": "rodents [9]", "value": "inhibited nicotine-reinstatement for a conditioned reinforcer"}]}]}
